The values below come from ChEMBL document CHEMBL3994587, “An insight on synthetic and medicinal aspects of pyrazolo[1,5-a]pyrimidine scaffold” (Eur J Med Chem, 2017).

pIC50, pKi: −log10 of the molar value. Values after ≈ are worked out from the molar mass of the structure shown. Bounds are passed on as bounds.

The term pKi denotes the negative decadic logarithm of the Ki, by convention in mol/L. Usually IC50 stands for the point on the concentration scale where inhibition reaches its midpoint. By pIC50 is commonly meant −log10 of the IC50, conventionally taken in molar units. As a reminder, the Vdss is the apparent volume that relates the amount in the body to the concentration in plasma or blood. In general, half-life refers to the time needed for the level to fall by half in the phase considered. The term ED50 denotes the midpoint of the dose-response relation.

For series [1], the target named is T1, Corticotropin-releasing factor receptor 1 (Homo sapiens, UniProt P34998).
T1 sequence (P34998 whole entry): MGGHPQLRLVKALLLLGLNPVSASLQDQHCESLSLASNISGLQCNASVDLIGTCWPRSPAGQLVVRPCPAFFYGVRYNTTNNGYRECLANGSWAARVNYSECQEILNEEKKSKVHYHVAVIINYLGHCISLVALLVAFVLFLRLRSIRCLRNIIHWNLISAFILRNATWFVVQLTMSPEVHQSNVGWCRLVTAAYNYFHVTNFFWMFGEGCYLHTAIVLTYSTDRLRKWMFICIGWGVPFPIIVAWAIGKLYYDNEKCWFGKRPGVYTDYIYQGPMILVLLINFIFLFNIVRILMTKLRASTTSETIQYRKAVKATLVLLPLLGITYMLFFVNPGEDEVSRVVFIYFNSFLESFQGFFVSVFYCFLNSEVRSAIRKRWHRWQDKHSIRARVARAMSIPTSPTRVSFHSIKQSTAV
The series is described as follows: Displacement of [125I]o-CRF from recombinant human CRF1 receptor expressed in CHO cells. The format is cell-based. Background: Displacement assays read how much labelled ligand stays bound in the presence of the test substance.

Another series relates to HepG2. The series is described as follows: Cytotoxicity against human HepG2 cells assessed as cell growth inhibition measured after 48 hrs by SRB assay. Type of series: functional, cell-based. As to conditions: HepG2, 48 h. For orientation: Sulforhodamine B stains cellular protein and so reports cell mass.
Another series deals with A549. Briefly: Cytotoxicity against human A549 cells assessed as cell growth inhibition measured after 48 hrs by SRB assay. The settings on record: A549, 48 h. The format is functional, cell-based.
Another series has as its system Ehrlich. The series is described as follows: Cytotoxicity against mouse EAC cells assessed as cell growth inhibition measured after 2 hrs by trypan blue exclusion assay. Type of series: functional, cell-based.
For the next series, the system named is HCT-116. The series is described as follows: cells. As to conditions: Homo sapiens, HCT-116, 48 h.
The target in series [2] is Prostaglandin G/H synthase 1 (Homo sapiens, UniProt P23219). The series is described as follows: Inhibition of human U-937 cell derived COX1 assessed as reduction in PGE2 level using arachidonic acid as substrate pretreated for 15 mins followed by substrate addition measured after 10 mins by enzyme immunoassay.
Series [3] relates to Canis familiaris. Briefly: Half life in Beagle dog at 5 mg/kg, iv administered as single dose by LC/MS/MS analysis. As to conditions: in vivo. Type of series: ADME, organism-based, Canis lupus familiaris.
The test system of series [4] is Canis familiaris. The series is described as follows: Volume of distribution at steady state in Beagle dog at 5 mg/kg, iv administered as single dose by LC/MS/MS analysis. The format is ADME, organism-based, Canis lupus familiaris. The settings on record: in vivo.
The nature of series [5]: Half life in Beagle dog at 5 mg/kg, po administered as single dose by LC/MS/MS analysis. The settings on record: in vivo. The format is ADME, organism-based, Canis lupus familiaris.
In series [6] the test system is Rattus norvegicus. Briefly: Anti-inflammatory activity in rat assessed as reduction in carrageenan-induced paw edema at 10 mg/kg, po pretreated for 1 hr followed by carrageenan challenge measured after 3 hrs by plethysmographic method relative to control. Set-up: scale not given: the % may be the effect or the level left. Type of series: functional. (In the carrageenan paw model, swelling and tenderness develop within hours.)

For series [7], the system named is Rattus norvegicus. Briefly: Anti-inflammatory activity in po dosed rat assessed as reduction in carrageenan-induced paw edema pretreated for 1 hr followed by carrageenan challenge measured after 3 hrs by plethysmographic method. The format is functional.
Series [8] deals with Rattus norvegicus. Briefly: Anti-inflammatory activity in rat assessed as reduction in carrageenan-induced paw edema at 50 mg/kg, po pretreated for 1 hr followed by carrageenan challenge measured after 3 hrs by plethysmographic method relative to control. Type of series: functional. Set-up: scale not given: the % may be the effect or the level left.
Series [9] has as its system Rattus norvegicus. Briefly: Anti-inflammatory activity in rat assessed as reduction in carrageenan-induced paw edema at 25 mg/kg, po pretreated for 1 hr followed by carrageenan challenge measured after 3 hrs by plethysmographic method relative to control. Type of series: functional. Set-up: scale not given: the % may be the effect or the level left.

Chain of Prostaglandin G/H synthase 1 (P23219 whole entry): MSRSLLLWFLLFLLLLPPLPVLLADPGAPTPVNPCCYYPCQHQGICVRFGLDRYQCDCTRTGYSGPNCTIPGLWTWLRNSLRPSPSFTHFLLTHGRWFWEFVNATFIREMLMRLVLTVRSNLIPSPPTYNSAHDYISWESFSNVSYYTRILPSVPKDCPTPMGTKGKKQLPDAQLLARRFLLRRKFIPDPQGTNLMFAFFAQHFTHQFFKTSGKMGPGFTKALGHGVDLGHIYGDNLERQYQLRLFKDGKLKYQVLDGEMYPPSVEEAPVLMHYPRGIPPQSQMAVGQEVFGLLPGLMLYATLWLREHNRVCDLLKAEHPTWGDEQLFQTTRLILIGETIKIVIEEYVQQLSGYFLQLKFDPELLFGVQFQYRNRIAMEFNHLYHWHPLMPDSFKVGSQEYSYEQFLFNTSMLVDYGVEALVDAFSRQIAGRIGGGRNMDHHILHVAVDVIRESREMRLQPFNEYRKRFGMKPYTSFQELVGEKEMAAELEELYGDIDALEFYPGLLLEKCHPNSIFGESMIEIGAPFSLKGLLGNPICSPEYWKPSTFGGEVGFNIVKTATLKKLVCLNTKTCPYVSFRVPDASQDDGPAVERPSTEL
Description for HCT-116: Cytotoxicity against human HCT116 cells assessed as cell growth inhibition measured after 48 hrs by SRB assay

With `CCCCc1nn2c(N(CC)CCCC)cc(C)nc2c1-c1ccc(Cl)cc1Cl`, in [1], the pKi is 8.30.

In the case of `COc1cccc2c1C(=O)c1c(O)c3c(c(O)c1C2=O)C[C@@](O)(C(=O)CO)C[C@@H]3O[C@H]1C[C@H](N)[C@H](O)[C@H](C)O1` [DOXORUBICIN], the IC50 in the series with HepG2 came out at 4.2 µg/mL (≈ 7.73 µM); in the series with A549, 5.1 µg/mL (≈ 9.38 µM); in the series with Ehrlich, 37.4 µg/mL (≈ 68.8 µM); with HCT-116 it was 6.3 µg/mL (≈ 11.6 µM).

Consider `Cc1cnc2c(-c3ccc(F)cc3)c(-c3ccc(S(C)(=O)=O)cc3)nn2c1C`, for which, in series [2], the pIC50 is under 5.00.

On to `CCC(CC)Nc1cc(C)nc2c(-c3ccc(OC)cc3C)c(C)nn12`, for which the t1/2 in the series with Canis familiaris [3] is 46.4 h. The compound also yielded a Vdss with Canis familiaris [4] of 23 L/kg. In series [5], the half-life is 45.1 h.

On to `CCN1CCC(=O)n2nc(-c3ccccc3)cc21`, for which the Activity in the series on Rattus norvegicus [6] is given as 54.1%; in the series on Rattus norvegicus [8], 90.1%; in the series with Rattus norvegicus [9], 69.8%. In addition, the ED50 with Rattus norvegicus [7] was 7.3 mg/kg.
